Data reported in US4576625A, “Fertilizers containing urea with urease inhibitors” (Huls Aktiengesellschaft, priority 1983, dated 1986).
Several values for one entry are separate records, joined by “and”; a condition that tells them apart may be missing. Equal entries are not always repeated. Each block holds one molecule with its values, some of them ahead of it.

Columns and labels:
urease = assay type: biochemical
rye grass [1] = assay: Pot experiments with rye grass, urea as soil fertilizer with various urease inhibitors (Table 6); assay type: in vivo; settings: urea four times 1.0 g N/pot; inhibitor 2% of the urea quantity; loamy sand pH 5.6
Description: (§1) The results of the tests in Mitscherlich pots are compiled in Tables 6 and 7.
In Table 6 the various urease inhibitors as urea additives for soil fertilization are compared with one another. Both in overall crop yield as well as in N absorption and in raw protein content, the best results are achieved with bromo-nitro compounds. The maleic derivatives and the quinone product furnish poorer results.
(§2) The mixtures according to the invention used for the experiments of these tables were produced by powdering the urea prills with said bromo-nitro compounds; optionally, the prills can be sprayed before powdering with a hydrocarbon oil to improve adhesion. The bromo-nitro compounds soluble in liquid fertilizers containing urea pose no problems of distribution in dissolved fertilizers containing urea. In the case of slightly soluble bromo-nitro compounds, stirring must occur during the distribution. Optionally, solutizing agents can be added.

rye grass [2] = assay: Pot tests for rye grass, urea as soil fertilizer optionally with 2% urease inhibitors, compared with KAS (Table 7); assay type: in vivo; settings: for N Absorption / Raw Protein % of Dry Subst / Dry Substance: 2% inhibitor where added; for Dry Substance: 5 cuttings
Description: as §1
In the experiments in Table 7 on rye grass, urea, with and without urease inhibitors, used as a soil fertilizer in application amounts between 0.5 and 1.0 g N/pot, was tested in comparison with KAS. As a product from the maleinimide group, Substance 64 from Table 1, i.e. N-methylmaleinimide was added; from the bromo-nitro compounds, Substance 1 of Table 2, bromo-2-nitropropyl-N-methylcarbamate was added. […] The yield of dry solids scarcely increases as the application of fertilizer increases from 0.75 to 1.0 g N both with urea fertilization alone as well as with the addition of a maleinimide compound.
as §2

[3] = tested on: spring wheat, sirocco type; assay: Pot tests with spring wheat, urea or AUS as leaf fertilizer with urease inhibitor (Table 8); assay type: in vivo
Description: (In the case of the test series with AUS and urea, equal quantities of N were used. The quantities of the urease inhibitors used were increased in the same way in both test series. If, however, the inhibitor material is related to the use of urea-N, this means that in the case of AUS double the quantity comes into play.)

rats = settings: oral ingestion by rats; cited from earlier work
[4] = Critical relative humidity (water activity) of fertilizer solutions; assay type: physicochemical; settings: 50% urea solution as for 100% salts; between 10° and 30° C.
[5] = AUS leaf fertilizer, inhibitor quantity 4 per 100 g urea-N
[6] = AUS leaf fertilizer, inhibitor quantity 8 per 100 g urea-N
[7] = urea solution leaf fertilizer, inhibitor quantity 2 per 100 g urea-N
[8] = urea solution leaf fertilizer, inhibitor quantity 4 per 100 g urea-N

Structure (SMILES): CNC(=O)OCC(C)(Br)[N+](=O)[O-] (centres unmarked) [Subst. 1-Tab. 3, 2-Bromo-2-nitro-propyl-N--methylcarbamate]
N losses of the soil through NH3 volatilization as % of the urea-N quantities used (urease): 0.3% and 0.0% | N losses of the soil through NH3 volatilization calculated as % of the urea-N quantities used (urease): 0.0% and 1.2% and 0.1% | Dry Substance 1st-5th Cutting (rye grass [1]): 131.7 g/Pot | N-absorption (rye grass [1]): 3.29 g/Pot | Raw Protein % in Dry Substance (rye grass [1]): 15.6% | N Absorption (rye grass [2]; N fertilization 0.5 g N/pot): 1432 mg/Pot | Raw Protein % of Dry Subst (rye grass [2]; N fertilization 0.5 g N/pot): 12.62% | Dry Substance (rye grass [2]; N fertilization 0.5 g N/pot): 70.9 g/Pot | N Absorption (rye grass [2]; N fertilization 0.75 g N/pot): 2095 mg/Pot | Raw Protein % of Dry Subst (rye grass [2]; N fertilization 0.75 g N/pot): 16.43% | Dry Substance (rye grass [2]; N fertilization 0.75 g N/pot): 79.7 g/Pot | N Absorption (rye grass [2]; N fertilization 1.0 g N/pot): 2720 mg/Pot | Raw Protein % of Dry Subst (rye grass [2]; N fertilization 1.0 g N/pot): 19.68% | Dry Substance (rye grass [2]; N fertilization 1.0 g N/pot): 86.4 g/Pot | comparison of fertilizer combinations (in words) (rye grass [2]; urea + 2% inhibitor): superior to the corresponding mixture with 2% of a maleinimide compound | Dry Substance [3, 5]: 68.68 g/pot | N Absorption [3, 5]: 1058 mg/pot | Raw Protein [3, 5]: 9.63% | Dry Substance [3, 6]: 68.69 g/pot | N Absorption [3, 6]: 1051 mg/pot | Raw Protein [3, 6]: 9.56% | Dry Substance [3, 7]: 65.11 g/pot | N Absorption [3, 7]: 951 mg/pot | Raw Protein [3, 7]: 9.13% | Dry Substance [3, 8]: 68.36 g/pot | N Absorption [3, 8]: 1046 mg/pot | Raw Protein [3, 8]: 9.56%

Structure (SMILES): CCC(Br)(COC(=O)NC)[N+](=O)[O-] (centres unmarked) [Subst. 2-Tab. 3, 2-Bromo-2-nitro-butyl-N--methylcarbamate]
N losses of the soil through NH3 volatilization as % of the urea-N quantities used (urease): 0.5% and 0.0%

Structure (SMILES): O=[N+]([O-])C(Br)(CO)CO [Subst. 3-Tab. 3, 2-Bromo-2-nitro-propan-1,3-diol]
N losses of the soil through NH3 volatilization as % of the urea-N quantities used (urease): 0.9% and 0.0% | N losses of the soil through NH3 volatilization calculated as % of the urea-N quantities used (urease): 0.0% and 0.5% | Dry Substance 1st-5th Cutting (rye grass [1]): 128.6 g/Pot | N-absorption (rye grass [1]): 3.15 g/Pot | Raw Protein % in Dry Substance (rye grass [1]): 15.3% | LD50 (rats): 400 mg/kg

Structure (SMILES): CC(Br)(CO)[N+](=O)[O-] (centres unmarked) [Subst. 4-Tab. 3, 2-Bromo-2-nitro-propanol]
N losses of the soil through NH3 volatilization as % of the urea-N quantities used (urease): 2.1% and 0.0% | Dry Substance 1st-5th Cutting (rye grass [1]): 127.8 g/Pot | N-absorption (rye grass [1]): 3.09 g/Pot | Raw Protein % in Dry Substance (rye grass [1]): 15.1%

Structure (SMILES): CC(C)(C)C(O)C(Br)[N+](=O)[O-] (centres unmarked) [Subst. 5-Tab. 3, 1-Bromo-1-nitro-3,3.dimethyl-butane-2-ol]
N losses of the soil through NH3 volatilization as % of the urea-N quantities used (urease): 4.7% and 0.0%

Structure (SMILES): CCCC(O)C(Br)[N+](=O)[O-] (centres unmarked) [Subst. 6-Tab. 3, 1-Bromo-1-nitro-pentanol-2]
N losses of the soil through NH3 volatilization as % of the urea-N quantities used (urease): 6.5% and 0.0%

Structure (SMILES): CCC(O)C(Br)[N+](=O)[O-] (centres unmarked) [Subst. 7-Tab. 3, 1-Bromo-1-nitro-butanol-2]
N losses of the soil through NH3 volatilization as % of the urea-N quantities used (urease): 8.3% and 0.0%

Structure (SMILES): CC(C)C(O)C(Br)[N+](=O)[O-] (centres unmarked) [Subst. 8-Tab. 3, 1-Bromo-1-nitro-3-methyl-butane-2-ol]
N losses of the soil through NH3 volatilization as % of the urea-N quantities used (urease): 10.0% and 0.1%

Structure (SMILES): CC(O)C(Br)[N+](=O)[O-] (centres unmarked) [Subst. 11-Tab. 3, 1-Bromo-1-nitro-propanol-2]
N losses of the soil through NH3 volatilization as % of the urea-N quantities used (urease): 2.3%

Structure (SMILES): O=C1C2C3C=CC(C3)C2C(=O)N1SC(Cl)(Cl)Cl (centres unmarked) [Subst. 23-Tab. 2, reference compound]
urease inhibitor effect (in words) (urease): No outstanding inhibitor effect

Structure (SMILES): O=C1C=CC(=O)C=C1 [Subst. 31-Tab. 1, 1,4-Benzoquinone]
Dry Substance 1st-5th Cutting (rye grass [1]): 118.3 g/Pot | N-absorption (rye grass [1]): 2.54 g/Pot | Raw Protein % in Dry Substance (rye grass [1]): 13.4%

Structure (SMILES): CC(=O)OCN1C(=O)C=CC1=O [Subst. 48-Tab. 1, N--Acetoximethylmaleinimide]
urease inhibitor effect (in words) (urease): best inhibitor effects | Dry Substance 1st-5th Cutting (rye grass [1]): 129.7 g/Pot | N-absorption (rye grass [1]): 2.85 g/Pot | Raw Protein % in Dry Substance (rye grass [1]): 13.7%

Structure (SMILES): CCN1C(=O)C=CC1=O [Subst. 56-Tab. 1, N--Ethylmaleinimide, reference compound]
urease inhibitor effect (in words) (urease): best inhibitor effects

Structure (SMILES): O=C1C=CC(=O)N1 [Subst. 61-Tab. 1, Maleinimide, reference compound]
urease inhibitor effect (in words) (urease): best inhibitor effects

Structure (SMILES): CN1C(=O)C=CC1=O [Subst. 64-Tab. 1, N--Methylmaleinimide, reference compound]
urease inhibitor effect (in words) (urease): best inhibitor effects | N Absorption (rye grass [2]; N fertilization 0.5 g N/pot): 1285 mg/Pot | Raw Protein % of Dry Subst (rye grass [2]; N fertilization 0.5 g N/pot): 11.66% | N Absorption (rye grass [2]; N fertilization 0.75 g N/pot): 1676 mg/Pot | Raw Protein % of Dry Subst (rye grass [2]; N fertilization 0.75 g N/pot): 12.82% | N Absorption (rye grass [2]; N fertilization 1.0 g N/pot): 1944 mg/Pot | Raw Protein % of Dry Subst (rye grass [2]; N fertilization 1.0 g N/pot): 14.84%

Structure (SMILES): O=C1C=CC(=O)N1CO [Subst. 66-Tab. 1, N--Methylolmaleinimide]
urease inhibitor effect (in words) (urease): best inhibitor effects | Dry Substance 1st-5th Cutting (rye grass [1]): 125.0 g/Pot | N-absorption (rye grass [1]): 2.85 g/Pot | Raw Protein % in Dry Substance (rye grass [1]): 14.3%

Structure (SMILES): O=C(Nc1ccccc1)OCN1C(=O)C=CC1=O [Subst. 68-Tab. 1, N--Methylolmaleinimide phenyl urethane]
Dry Substance 1st-5th Cutting (rye grass [1]): 124.0 g/Pot | N-absorption (rye grass [1]): 2.83 g/Pot | Raw Protein % in Dry Substance (rye grass [1]): 14.3%

CRH value (critical relative humidity) [4]: 75-76%
Structure (SMILES): NC(N)=O [urea]
